Results on 14 compounds are retold here after patent US10329309B2, “3-(3H-imidazo[4,5-B]pyridin-2-yl)-1H-pyrazolo[4,3-B]pyridines and therapeutic uses thereof” (Samumed, LLC, priority 2015, dated 2019).

Some results are limits rather than exact numbers.

Common to all, as to format: cell-based
Assay [1] concerns primary human fibroblasts derived from IPF patients (LL29 cells), α-smooth muscle actin (αSMA). As to the kind of experiment: Inhibition of the fibrotic process: TGF-β1-treated primary human fibroblasts from IPF patients, αSMA staining. To be noted: Fibroblast, 96 h, 4 days; for EC50: LL29 fibroblasts from IPF patients, TGF-β1 20 ng/mL, inhibition of fibrotic process; for inhibition at 10 µM: LL29 fibroblasts, TGF-β1 treated, read-out: percent inhibition at 10 μM (given for EC50 of >10 μM). In outline:
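LL29 IPF-patient lung fibroblasts in 1% FBS F12 were given compounds (11-point, 10 μM to […], 0.1% DMSO) plus TGF-β1 20 ng/mL for 4 days at 37 °C. αSMA-positive fraction of live (SYTOX-negative) cells was imaged and normalized to TGF-β1/DMSO wells. EC50 by non-linear regression, or % inhibition at 10 μM if >10 μM.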

Another assay relates to SW480 colon cancer cells. As to the kind of experiment: Cell viability assay (CellTiter-Blue), four days. To be noted: Homo sapiens, 96 h; for EC50: CellTiter-Blue cell viability; for inhibition at 10 µM: read-out: percent inhibition at 10 μM (given for EC50 of >10 μM). The procedure, abridged: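 SW480 colon cancer cells (~2×10^3/well) exposed to 8-point 1:3 dilutions from 10 μM to 0.0045 μM for four days at 37 °C/5% CO2. Viability read by resazurin (CellTiter-Blue) fluorescence after ~3 h, Ex 560/Em 590 nm. EC50 from non-linear regression; percent inhibition at 10 μM given when EC50 >10 μM.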

Assay [2] deals with Wnt activity (Sp5-Luc reporter, SW480 colon carcinoma cells). As to the kind of experiment: Screening assay for Wnt activity: Sp5-Luc reporter gene assay in SW480 cells. The settings on record: Homo sapiens; for inhibition at 10 µM: 10 μM compound, read-out: percent inhibition at 10 μM (given for EC50 of >10 μM); for EC50: overnight incubation, 10-point dose-response from 10 μM. In outline: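 SW480 cells stably carrying Sp5-Luc reporter (eight TCF/LEF sites) plated at 4,000/well in 1% FBS medium with compound (10-point 1:3 series from 10 μM, 0.1% DMSO) overnight at 37 °C. BrightGlo luminescence normalized to DMSO; EC50 by four-parameter fit, else % inhibition at 10 μM.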

Take `Fc1cccc(-c2ccnc3[nH]c(-c4n[nH]c5ccc(-c6cn[nH]c6)nc45)nc23)c1` [Compound 507, 3-(7-(3-fluorophenyl)-3H-imidazo[4,5-b]pyridin-2-yl)-5-(1H-pyrazol-4-yl)-1H-pyrazolo[4,3-b]pyridine]: the EC50 (in assay [1]; with SW480 colon cancer cells; in assay [2]) was over 10 µM throughout. In addition, the inhibition at 10 µM worked out at 16.2% in assay [1], 0% in the assay with SW480 colon cancer cells and 17% in assay [2].
Take `Cn1cc(-c2ccc3[nH]nc(-c4nc5c(-c6cccc(F)c6)ccnc5[nH]4)c3n2)cn1` [Compound 508, 3-(7-(3-fluorophenyl)-3H-imidazo[4,5-b]pyridin-2-yl)-5-(1-methyl-1H-pyrazol-4-yl)-1H-pyrazolo[4,3-b]pyridine]: the EC50 (in assay [1]; with SW480 colon cancer cells; in assay [2]) was over 10 µM each time. Further, the inhibition at 10 µM in assay [1] was determined as 8.1%; with SW480 colon cancer cells, 0%; in assay [2], 41%.
Take `Fc1cccc(-c2ccnc3[nH]c(-c4n[nH]c5ccc(-c6cncc(OC7CCNCC7)c6)nc45)nc23)c1` [Compound 512, 3-(7-(3-fluorophenyl)-3H-imidazo[4,5-b]pyridin-2-yl)-5-(5-(piperidin-4-yloxy)pyridin-3-yl)-1H-pyrazolo[4,3-b]pyridine]: the EC50 in assay [1] is 1.66 µM; in the assay with SW480 colon cancer cells it was over 10 µM; in assay [2], over 10 µM. The inhibition at 10 µM in the assay on SW480 colon cancer cells came out at 15.7%; in assay [2] it was 45%.
In the case of `c1cncc(-c2ccnc3[nH]c(-c4n[nH]c5ccc(-c6cncc(OC7CCCCC7)c6)nc45)nc23)c1` [Compound 559, 5-(5-(Cyclohexyloxy)pyridin-3-yl)-3-(7-(pyridin-3-yl)-3H-imidazo[4,5-b]pyridin-2-yl)-1H-pyrazolo[4,3-b]pyridine], the EC50 in assay [1] is 5.18 µM; in the assay with SW480 colon cancer cells, over 10 µM; in assay [2] it was over 10 µM. Also, the inhibition at 10 µM in the assay with SW480 colon cancer cells came out at 4%; in assay [2], 12.4%.
Regarding `Oc1cncc(-c2ccc3[nH]nc(-c4nc5c(-c6cccnc6)ccnc5[nH]4)c3n2)c1` [Compound 565, 5-(3-(7-(Pyridin-3-yl)-3H-imidazo[4,5-b]pyridin-2-yl)-1H-pyrazolo[4,3-b]pyridin-5-yl)pyridin-3-ol], the EC50 (in assay [1]; in the assay with SW480 colon cancer cells; in assay [2]) was over 10 µM throughout. For the same compound, the inhibition at 10 µM came to 0% in assay [1], 5.9% with SW480 colon cancer cells and 14.1% in assay [2].
With `c1cc(-c2ccnc3[nH]c(-c4n[nH]c5ccc(-c6cncc(OC7CCNCC7)c6)nc45)nc23)ccn1` [Compound 576, 5-(5-(Piperidin-4-yloxy)pyridin-3-yl)-3-(7-(pyridin-4-yl)-3H-imidazo[4,5-b]pyridin-2-yl)-1H-pyrazolo[4,3-b]pyridine], the values for the half-maximal effective concentration (EC50) (in assay [1]; with SW480 colon cancer cells; in assay [2]) were 4.07 µM, over 10 µM and over 10 µM, respectively. For the same compound, the inhibition at 10 µM is 1.7% in the assay on SW480 colon cancer cells and 8.9% in assay [2].
`c1ccc(COc2cncc(-c3ccc4[nH]nc(-c5nc6c(-c7ccncc7)ccnc6[nH]5)c4n3)c2)cc1` [Compound 582, 5-(5-(Benzyloxy)pyridin-3-yl)-3-(7-(pyridin-4-yl)-3H-imidazo[4,5-b]pyridin-2-yl)-1H-pyrazolo[4,3-b]pyridine]: the EC50 in assay [1] is 0.648 µM; with SW480 colon cancer cells, over 10 µM; in assay [2] it was over 10 µM. Further, the results for the inhibition at 10 µM (in the assay with SW480 colon cancer cells; in assay [2]) were 2.6% and 5.8%, respectively.
As to `c1cc(-c2ccnc3[nH]c(-c4n[nH]c5ccc(-c6cnccn6)nc45)nc23)ccn1` [Compound 584, 5-(Pyrazin-2-yl)-3-(7-(pyridin-4-yl)-3H-imidazo[4,5-b]pyridin-2-yl)-1H-pyrazolo[4,3-b]pyridine], the EC50 (in assay [1]; in the assay with SW480 colon cancer cells; in assay [2]) was over 10 µM each time. The inhibition at 10 µM in assay [1] was 4.5%; in the assay with SW480 colon cancer cells, 10.8%; in assay [2], 8.5%.
In the case of `O=C(CC1CCNCC1)Nc1cncc(-c2ccc3[nH]nc(-c4nc5c(-c6ccccn6)ccnc5[nH]4)c3n2)c1` [Compound 593, 2-(Piperidin-4-yl)-N-(5-(3-(7-(pyridin-2-yl)-3H-imidazo[4,5-b]pyridin-2-yl)-1H-pyrazolo[4,3-b]pyridin-5-yl)pyridin-3-yl)acetamide], the EC50 in assay [1] is 0.913 µM; in the assay on SW480 colon cancer cells, over 10 µM; in assay [2], over 10 µM. Besides, the inhibition at 10 µM with SW480 colon cancer cells amounted to 16.7%; in assay [2], 29.3%.
Regarding `c1cc(N2CCCCC2)c2nc(-c3n[nH]c4ccc(-c5cncc(OCCN6CCCC6)c5)nc34)[nH]c2n1` [Compound 610, 3-(7-(Piperidin-1-yl)-3H-imidazo[4,5-b]pyridin-2-yl)-5-(5-(2-(pyrrolidin-1-yl)ethoxy)pyridin-3-yl)-1H-pyrazolo[4,3-b]pyridine], the EC50 was 2.27 µM in assay [1], over 10 µM in the assay on SW480 colon cancer cells and over 10 µM in assay [2]. Also, the inhibition at 10 µM in the assay on SW480 colon cancer cells came out at 3.5%; in assay [2], 4.8%.
Regarding `COc1cncc(-c2ccc3[nH]nc(-c4nc5c(N6CCCCC6)ccnc5[nH]4)c3n2)c1` [Compound 612, 5-(5-Methoxypyridin-3-yl)-3-(7-(piperidin-1-yl)-3H-imidazo[4,5-b]pyridin-2-yl)-1H-pyrazolo[4,3-b]pyridine], the EC50 (in assay [1]; in the assay with SW480 colon cancer cells; in assay [2]) was over 10 µM throughout. The inhibition at 10 µM in assay [1] is 30.3%; with SW480 colon cancer cells it was 6.1%; in assay [2], 5.8%.
Turning to `Cc1cn(-c2ccnc3[nH]c(-c4n[nH]c5ccc(C6=CCNCC6)nc45)nc23)cn1` [Compound 618, 3-(7-(4-Methyl-1H-imidazol-1-yl)-3H-imidazo[4,5-b]pyridin-2-yl)-5-(1,2,3,6-tetrahydropyridin-4-yl)-1H-pyrazolo[4,3-b]pyridine], the EC50 (in assay [1]; in the assay on SW480 colon cancer cells; in assay [2]) was over 10 µM each time. For the same compound, the results for the inhibition at 10 µM (in assay [1]; in the assay with SW480 colon cancer cells; in assay [2]) were 0%, 2.8% and 8.7%, respectively.
Take `Cc1cn(-c2ccnc3[nH]c(-c4n[nH]c5ccc(-c6cncc(N7CC(N)C7)n6)nc45)nc23)cn1` [Compound 622, 1-(6-(3-(7-(4-Methyl-1H-imidazol-1-yl)-3H-imidazo[4,5-b]pyridin-2-yl)-1H-pyrazolo[4,3-b]pyridin-5-yl)pyrazin-2-yl)azetidin-3-amine]: the EC50 in assay [1] was 4.82 µM; with SW480 colon cancer cells it was over 10 µM; in assay [2], over 10 µM. Also, the inhibition at 10 µM with SW480 colon cancer cells turned out to be 4.7%; in assay [2], 9.8%.
In the case of `Cc1cn(-c2ccnc3[nH]c(-c4n[nH]c5ccc(-c6cncc(OCCN(C)C)c6)nc45)nc23)cn1` [Compound 627, N,N-Dimethyl-2-((5-(3-(7-(4-methyl-1H-imidazol-1-yl)-3H-imidazo[4,5-b]pyridin-2-yl)-1H-pyrazolo[4,3-b]pyridin-5-yl)pyridin-3-yl)oxy)ethan-1-amine], the EC50 in assay [1] was 4.8 µM; in the assay with SW480 colon cancer cells, over 10 µM; in assay [2] it was over 10 µM. Also, the inhibition at 10 µM was 14.8% in the assay on SW480 colon cancer cells and 22.4% in assay [2].
